Reference: patent US10435399B2, “HDAC6 inhibitory heterocyclic compound” (TAKEDA PHARMACEUTICAL COMPANY LIMITED, priority 2017, dated 2019)

Each compound was assayed against T1, HDAC6 enzyme (Homo sapiens, UniProt Q9UBN7) (assay: HDAC6 enzyme inhibitory activity (HDAC-Glo I/II Assay kit)). Conditions: 10 μM; wells without enzyme = 100% inhibition.
T1 construct: transducing full length HDAC6 gene into Sf-9 insect cells; GST; purchased SignalChem; host or cells: Sf-9 insect cells
T1 sequence (Q9UBN7 1-1215): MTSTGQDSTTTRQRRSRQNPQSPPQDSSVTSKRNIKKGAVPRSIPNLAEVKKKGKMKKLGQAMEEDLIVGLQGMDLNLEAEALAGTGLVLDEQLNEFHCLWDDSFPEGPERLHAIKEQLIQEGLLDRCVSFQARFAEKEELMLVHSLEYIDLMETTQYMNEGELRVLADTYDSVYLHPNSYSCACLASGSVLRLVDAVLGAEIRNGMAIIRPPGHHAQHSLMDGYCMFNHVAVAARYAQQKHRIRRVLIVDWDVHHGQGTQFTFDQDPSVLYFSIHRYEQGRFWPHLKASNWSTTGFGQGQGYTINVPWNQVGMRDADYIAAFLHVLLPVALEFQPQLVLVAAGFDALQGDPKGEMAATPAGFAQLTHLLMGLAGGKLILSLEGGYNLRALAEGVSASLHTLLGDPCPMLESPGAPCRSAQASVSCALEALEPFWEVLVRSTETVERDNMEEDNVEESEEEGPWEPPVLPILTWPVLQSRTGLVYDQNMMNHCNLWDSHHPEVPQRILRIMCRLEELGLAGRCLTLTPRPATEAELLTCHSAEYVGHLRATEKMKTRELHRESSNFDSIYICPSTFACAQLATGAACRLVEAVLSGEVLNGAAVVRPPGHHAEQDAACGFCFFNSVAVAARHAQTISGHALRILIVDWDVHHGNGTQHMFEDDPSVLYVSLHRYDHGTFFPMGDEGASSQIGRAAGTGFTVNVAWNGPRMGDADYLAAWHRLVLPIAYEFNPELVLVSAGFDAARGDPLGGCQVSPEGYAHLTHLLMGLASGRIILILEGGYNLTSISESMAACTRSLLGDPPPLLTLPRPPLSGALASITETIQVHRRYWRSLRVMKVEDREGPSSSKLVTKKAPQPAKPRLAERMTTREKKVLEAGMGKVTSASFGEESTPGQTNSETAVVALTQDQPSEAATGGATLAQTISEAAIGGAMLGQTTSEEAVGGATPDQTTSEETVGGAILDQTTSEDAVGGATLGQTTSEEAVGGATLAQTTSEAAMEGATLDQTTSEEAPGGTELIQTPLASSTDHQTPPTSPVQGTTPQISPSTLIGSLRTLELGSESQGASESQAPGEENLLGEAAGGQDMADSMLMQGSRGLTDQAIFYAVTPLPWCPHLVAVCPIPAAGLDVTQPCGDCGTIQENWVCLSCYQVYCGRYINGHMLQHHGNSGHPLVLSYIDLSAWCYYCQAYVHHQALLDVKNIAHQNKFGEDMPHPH
Assay type: biochemical
Summary of the method: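 Sf-9-derived GST-purified full-length HDAC6 + cpd, 60 min RT, 24 mM Tris pH 7.5/0.6 mM glutathione/0.01% Tween-20; add HDAC-Glo substrate-developer, 20 min RT; luminescence. No-enzyme = 100% inhibition.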
In the case of `O=C1c2cc(-c3nnc(C(F)F)o3)ccc2CN1[C@@H]1CCN(C(=O)C2(C(F)(F)F)CC2)C[C@H]1c1ccc(F)cc1` [Example 508, 6-(5-(difluoro-methyl)-1,3,4-oxadiazol-2-yl)-2-((3R,4R)-3-(4-fluorophenyl)-1-((1-(trifluoro-methyl)cyclo-propyl)carbonyl)pipeiridin-4-yl) isoindolin-1-one], the “HDAC6 inhibitory rate (%) (10 μM)” value is reported as 100%.

Same assay, conditions: 10 μM; wells without enzyme = 100% inhibition; read-out: HDAC6 inhibitory rate (%) (10 μM)
`O=C(N[C@@H]1CCCC[C@H]1N1Cc2ccc(-c3nnc(C(F)F)o3)cc2C1=O)[C@H]1CCCO1` [Example 113, (2R)-N-((1R,2R)-2-(6-(5-(difluoromethyl)-1,3,4-oxadiazol-2-yl)-1-oxo-1,3-dihydro-2H-isoindol-2-yl)cyclohexyl)tetrahydrofuran-2-carboxamide] gave an inhibition at 10 µM of 102%.
`O=C(C(F)F)N1CCC[C@H](N2Cc3ccc(-c4nnc(C(F)F)o4)cc3C2=O)[C@H]1c1ccc(F)cc1` (racemic) [Example 584, 2-((2RS,3SR)-1-(difluoroacetyl)-2-(4-fluorophenyl)piperidin-3-yl)-6-(5-(difluoromethyl)-1,3,4-oxadiazol-2-yl)isoindolin-1-one] showed an inhibition at 10 µM of 100%.
In the case of `O=C1NCCCN1[C@@H]1CCCC[C@H]1N1Cc2ccc(-c3nnc(C(F)F)o3)cc2C1=O` [Example 31, 6-(5-(difluoromethyl)-1,3,4-oxadiazol-2-yl)-2-((1R,2R)-2-(2-oxotetrahydropyrimidin-1(2H)-yl)cyclohexyl) isoindolin-1-one], the inhibition at 10 µM is reported as 97%.
In the case of `O=C1c2cc(-c3nnc(C(F)F)o3)ccc2CN1c1cccn2ccnc12` [Example 616, 6-(5-(difluoromethyl)-1,3,4-oxadiazol-2-yl)-2-(imidazo[1,2-a]pyridin-8-yl)isoindolin-1-one], the inhibition at 10 µM is reported as 89%.
`O=C1c2cc(-c3nnc(C(F)F)o3)ccc2CN1c1ccc(Cl)cc1Br` [Example 241, 2-(2-bromo-4-chlorophenyl)-6-(5-(difluoromethyl)-1,3,4-oxadiazol-2-yl)isoindolin-1-one] gave an inhibition at 10 µM of 91%.
`O=C1c2cc(-c3nnc(C(F)F)o3)ccc2CN1[C@@H]1CCC(F)(F)C[C@H]1c1ccccn1` (relative stereo) [Example 586, 6-(5-(difluoromethyl)-1,3,4-oxadiazol-2-yl)-2-((1R*,2R*)-4,4-difluoro-2-(pyridin-2-yl)cyclohexyl)isoindolin-1-one (Optical Isomer)] was tested, and the inhibition at 10 µM was 100%.
For `O=C1c2cc(-c3nnc(C(F)F)o3)ccc2CN1c1ccccc1-c1cccc(F)c1F` [Example 308, 2-(2′,3′-difluorobiphenyl-2-yl)-6-(5-(difluoromethyl)-1,3,4-oxadiazol-2-yl)-isoindolin-1-one], the inhibition at 10 µM was 97%.
With `O=C1c2cc(-c3nnc(C(F)F)o3)cc(F)c2CN1C[C@@H]1CC(F)(F)CN1S(=O)(=O)C1CC1` [Example 343, 2-(((2S)-1-(cyclopropyl-sulfonyl)-4,4-difluoro-pyrrolidin-2-yl)methyl)-6-(5-(difluoromethyl)-1,3,4-oxadiazol-2-yl)-4-fluoroisoindolin-1-one] the inhibition at 10 µM was 100%.
Work on `O=C1c2cc(-c3nnc(C(F)F)o3)ccc2CN1c1ccc(F)cc1-c1cccc(F)c1` [Example 386, 2-(3′,5-difluoro-biphenyl-2-yl)-6-(5-(difluoro-methyl)-1,3,4-oxadiazol-2-yl) isoindolin-1-one] yielded an inhibition at 10 µM of 101%.
`O=C(N[C@@H]1CCCC[C@H]1N1Cc2ccc(-c3nnc(C(F)F)o3)cc2C1=O)[C@H]1C[C@H]1F` (mixture of isomers) [Example 111, (1RS,2RS)-N-((1R,2R)-2-(6-(5-(difluoromethyl)-1,3,4-oxadiazol-2-yl)-1-oxo-1,3-dihydro-2H-isoindol-2-yl)cyclohexyl)-2-fluorocyclopropanecarboxamide] was tested, and the inhibition at 10 µM was 101%.
`CCC(=O)N[C@@H]1CCCC[C@H]1N1Cc2c(F)cc(-c3nnc(C(F)F)o3)cc2C1=O` [Example 182, N-((1R,2R)-2-(6-(5-(difluoromethyl)-1,3,4-oxadiazol-2-yl)-4-fluoro-1-oxo-1,3-dihydro-2H-isoindol-2-yl)cyclohexyl)propanamide] was tested, and the inhibition at 10 µM was 99%.
